Measured values published in ChEMBL document CHEMBL4184235, “Design, synthesis, SAR and biological investigation of 3-(carboxymethyl)rhodanine and aminothiazole inhibitors of Mycobacterium tuberculosis Zmp1” (Bioorg Med Chem Lett, 2018).
≈ marks a conversion by molar mass, not a printed value.

What was measured:
[1] = Inhibition of N-terminal enterokinase-cleavable His-tagged full-length Mycobacterium tuberculosis Zmp1 expressed in Escherichia coli BL21(DE3) assessed as reduction in enzyme activity at 50 uM using MCA-Pro-Leu-Gly-Leu-Dpa-Ala-Arg-NH2 substrate by fluorometry
[2] = test system: Mycobacterium tuberculosis; test: Inhibition of N-terminal enterokinase-cleavable His-tagged full-length Mycobacterium tuberculosis Zmp1 expressed in Escherichia coli BL21(DE3) assessed as residual enzyme activity at 50 uM using MCA-Pro-Leu-Gly-Leu-Dpa-Ala-Arg-NH2 substrate by fluorometry
[3] = test system: Mycobacterium tuberculosis; test: Antimycobacterial activity against Mycobacterium tuberculosis infected in human THP1 cells assessed as inhibition of microbial growth by measuring colony forming units at 10 ug/ml incubated for 72 hrs followed by plating on Middlebrook 7H11 medium for 21 days; format: functional; details: THP-1, read-out: GI
[4] = Cytotoxicity against human THP1 cells assessed as reduction in cell viability incubated for 72 hrs by MTT assay; format: cell-based; details: THP-1 cells
[5] = test system: Mycobacterium tuberculosis; test: Antimycobacterial activity against Mycobacterium tuberculosis H37Ra ATCC […] assessed as reduction in bacterial growth incubated for 7 days by resazurin microtiter assay; format: functional; details: 168 h
[6] = test system: Mycobacterium tuberculosis; test: Antimycobacterial activity against Mycobacterium tuberculosis infected in human THP1 cells assessed as inhibition of microbial growth by measuring colony forming units at 100 ug/ml incubated for 72 hrs followed by plating on Middlebrook 7H11 medium for 21 days; format: functional; details: THP-1, read-out: GI
[7] = Cytotoxicity against African green monkey Vero cells assessed as reduction in cell viability incubated for 72 hrs by MTT assay; format: cell-based; details: chlorocebus sabaeus

`N#Cc1ccc(-c2csc(N[C@H](Cc3ccccc3)C(=O)O)n2)cc1` gave an IC50 [1] of 41.3 µM and an Activity [2] of 35%.
In the case of `O=C(O)[C@@H](Cc1ccccc1)Nc1nc(-c2ccc([N+](=O)[O-])cc2)cs1`, the IC50 [1] is reported as 35.7 µM and the Activity [2] is reported as 36.3%.
With `N#Cc1ccc(/C=C2\SC(=S)N([C@H](Cc3ccccc3)C(=O)O)C2=O)cc1` the IC50 [1] was 6.6 µM and the Activity [2] was 7.1%.
`COc1cccc(Cc2csc(N[C@H](Cc3ccccc3)C(=O)O)n2)c1` showed an Activity [2] of 100%.
Work on `COc1cccc(/C=C2\SC(=S)N([C@H](Cc3ccccc3)C(=O)O)C2=O)c1` yielded an IC50 [1] of 18.4 µM and an Activity [2] of 10%.
For `O=C(O)[C@@H](Cc1ccccc1)N1C(=O)/C(=C/c2cccs2)SC1=S`, the IC50 [1] was 11.4 µM and the Activity [2] was 10.4%.
In the case of `COc1cccc(/C=C2\SC(=S)N([C@H](C)C(=O)O)C2=O)c1`, the IC50 [1] is reported as 23.4 µM and the Activity [2] is reported as 12.6%.
`O=C(O)[C@@H](Cc1ccccc1)Nc1nc(Cc2ccccc2)cs1` showed an Activity [2] of 100%.
For `O=C(O)CN1C(=O)/C(=C/c2ccc(C(=O)O)cc2)SC1=S`, the IC50 [1] was 3.9 µM and the Activity [2] was 10.3%.
For `O=C(O)CN1C(=O)/C(=C/c2cccc(C(=O)O)c2)SC1=S`, the IC50 [1] was 15.7 µM and the Activity [2] was 11.2%.
`O=C(O)c1ccc(Cc2csc(N[C@H](Cc3ccccc3)C(=O)O)n2)cc1` showed an Activity [2] of 100%.
Work on `COc1ccc(/C=C2\SC(=S)N([C@H](Cc3ccccc3)C(=O)O)C2=O)cc1` yielded an IC50 [1] of 20.4 µM and an Activity [2] of 12.3%.
Work on `O=C(O)[C@@H](Cc1ccccc1)N1C(=O)/C(=C/c2ccncc2)SC1=S` yielded an IC50 [1] of 26.9 µM and an Activity [2] of 19.1%.
For `O=C(O)c1ccc(/C=C2\SC(=S)N([C@@H](Cc3ccccc3)C(=O)O)C2=O)cc1`, the inhibition of growth at 10 µg/mL [3] was 57.4%, the CC50 at 72 h [4] was 115 µg/mL (≈ 278 µM) and the MIC [5] was over 64 µg/mL. It also gave an inhibition of growth at 100 µg/mL [6] of 58.3% and a CC50 at 72 h [7] of over 125 µg/mL.
Work on `C[C@H](C(=O)O)N1C(=O)/C(=C/c2cccc(C(=O)O)c2)SC1=S` yielded an IC50 [1] of 1.3 µM and an Activity [2] of 12.7%.
Work on `COc1cccc(/C=C2\SC(=S)N(CC(=O)O)C2=O)c1` yielded an IC50 [1] of 28.2 µM and an Activity [2] of 18.9%.
`C[C@H](C(=O)O)N1C(=O)/C(=C/c2ccc(C(=O)O)cc2)SC1=S` showed an IC50 [1] of 2.9 µM and an Activity [2] of 7.2%.
Work on `O=C(OCc1ccccc1)c1cccc(/C=C2\SC(=S)N([C@H](Cc3ccccc3)C(=O)O)C2=O)c1` yielded an inhibition of growth at 10 µg/mL [3] of 53.8%, a CC50 at 72 h [4] of 11.2 µg/mL (≈ 22.2 µM) and an IC50 [1] of 24 µM. For the same molecule, the MIC [5] was 64 µg/mL (≈ 127 µM), the Activity [2] was 13.5% and the CC50 at 72 h [7] was 23.2 µg/mL (≈ 46.1 µM).
Molecule `O=C(O)c1cccc(/C=C2\SC(=S)N([C@H](Cc3ccccc3)C(=O)O)C2=O)c1` has an inhibition of growth at 10 µg/mL [3] of 23.4%, a CC50 at 72 h [4] of 102 µg/mL (≈ 246 µM) and an IC50 [1] of 9.3 µM. The MIC [5] was over 64 µg/mL, the Activity [2] was 13.4% and the inhibition of growth at 100 µg/mL [6] was 54.5%. The CC50 at 72 h [7] was over 125 µg/mL.
Molecule `O=C(O)c1cccc(Cc2csc(N[C@H](Cc3ccccc3)C(=O)O)n2)c1` has an Activity [2] of 100%.
Work on `COC(=O)c1ccc(Cc2csc(N[C@H](Cc3ccccc3)C(=O)O)n2)cc1` yielded an Activity [2] of 61%.
`O=C(OCCc1ccccc1)c1ccc(/C=C2\SC(=S)N([C@H](Cc3ccccc3)C(=O)O)C2=O)cc1` gave an Activity [2] of 58.7%.
In the case of `O=C(O)c1ccc(-c2csc(N[C@H](Cc3ccccc3)C(=O)O)n2)cc1`, the Activity [2] is reported as 100%.
For `COc1cccc(-c2csc(N[C@H](Cc3ccccc3)C(=O)O)n2)c1`, the Activity [2] was 91.9%.
`COC(=O)c1cccc(/C=C2\SC(=S)N([C@H](Cc3ccccc3)C(=O)O)C2=O)c1` gave an inhibition of growth at 10 µg/mL [3] of 0.5%, a CC50 at 72 h [4] of 21.9 µg/mL (≈ 51.2 µM) and an IC50 [1] of 12.5 µM. For the same molecule, the MIC [5] was 64 µg/mL (≈ 150 µM), the Activity [2] was 13.2% and the CC50 at 72 h [7] was 32.5 µg/mL (≈ 76 µM).
For `CC(C)COC(=O)c1ccc(/C=C2\SC(=S)N([C@H](Cc3ccccc3)C(=O)O)C2=O)cc1`, the IC50 [1] was 43.9 µM and the Activity [2] was 28.1%.
With `O=C(O)c1ccc(/C=C2\SC(=S)N([C@H](Cc3ccccc3)C(=O)O)C2=O)cc1` the inhibition of growth at 10 µg/mL [3] was 0.1%, the CC50 at 72 h [4] was over 125 µg/mL and the IC50 [1] was 0.87 µM. It also gave an MIC [5] of over 64 µg/mL, an inhibition of growth at 100 µg/mL [6] of 60% and a CC50 at 72 h [7] of over 125 µg/mL.
Molecule `COC(=O)c1cccc(Cc2csc(N[C@H](Cc3ccccc3)C(=O)O)n2)c1` has an Activity [2] of 100%.
With `COc1ccc(-c2csc(N[C@H](Cc3ccccc3)C(=O)O)n2)cc1` the Activity [2] was 100%.
Molecule `O=C(O)c1cccc(-c2csc(N[C@H](Cc3ccccc3)C(=O)O)n2)c1` has an Activity [2] of 100%.
